Measurements as given in patent US20260022114A1, “N-(5-SUBSTITUTED-[(1,3,4-THIADIAZOLYL) OR (1,3-THIAZOLYL)](SUBSTITUTED)CARBOXAMIDE COMPOUNDS, PHARMACEUTICAL COMPOSITIONS, AND METHODS OF PREPARING THE AMIDE COMPOUNDS AND OF THEIR USE” (Repare Therapeutics Inc., priority 2022, published 2026).

The compounds below were run against PolQ ATPase enzyme (1-894) (Homo sapiens (Human), UniProt O75417) (assay: Polθ ATPase enzymatic assay (0.5 nM enzyme concentration), ADP-Glo). Conditions: 0.5 nM PolQ ATPase enzyme (1-894); average IC50.
PolQ ATPase enzyme (1-894), sequence (O75417 1-894): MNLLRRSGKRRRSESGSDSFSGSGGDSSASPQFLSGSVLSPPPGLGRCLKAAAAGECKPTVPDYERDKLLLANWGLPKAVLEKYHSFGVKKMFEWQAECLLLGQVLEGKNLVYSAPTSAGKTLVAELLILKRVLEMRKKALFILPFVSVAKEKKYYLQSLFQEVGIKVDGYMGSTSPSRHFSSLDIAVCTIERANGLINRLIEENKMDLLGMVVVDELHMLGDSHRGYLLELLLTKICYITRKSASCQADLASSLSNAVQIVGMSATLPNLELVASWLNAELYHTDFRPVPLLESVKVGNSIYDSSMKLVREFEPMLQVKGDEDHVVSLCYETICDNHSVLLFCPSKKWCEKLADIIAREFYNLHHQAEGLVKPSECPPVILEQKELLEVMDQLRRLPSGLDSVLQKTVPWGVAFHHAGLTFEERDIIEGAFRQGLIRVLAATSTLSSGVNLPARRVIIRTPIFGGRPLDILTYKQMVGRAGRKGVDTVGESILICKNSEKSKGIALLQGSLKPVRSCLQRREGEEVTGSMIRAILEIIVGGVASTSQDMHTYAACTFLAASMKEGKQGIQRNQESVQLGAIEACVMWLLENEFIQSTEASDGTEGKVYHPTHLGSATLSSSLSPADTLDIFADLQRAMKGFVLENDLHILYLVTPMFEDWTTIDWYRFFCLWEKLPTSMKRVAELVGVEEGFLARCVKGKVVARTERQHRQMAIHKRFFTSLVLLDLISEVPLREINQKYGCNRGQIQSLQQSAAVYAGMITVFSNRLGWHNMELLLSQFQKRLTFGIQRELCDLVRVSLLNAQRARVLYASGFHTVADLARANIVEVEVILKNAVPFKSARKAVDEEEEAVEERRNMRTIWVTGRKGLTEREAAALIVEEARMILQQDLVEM
Format: biochemical
Procedure: PolQ ATPase enzyme (1-894) at 0.5 nM is incubated with a 10-point concentration response of inhibitors for 15 min at rt in the following buffer: 50 mM Tris Cl pH 7.5, 10% glycerol, 5 mM DTT, 10 mM MgCl2, 0.1 mg/ml BSA. Following pre-incubation with inhibitors, DNA (Fork C) at 20 nM and ATP at 100 μM are added to start the reaction. Enzymatic reaction proceeds at rt for 180 min. ATP consumption is measured using the ADP-Glo assay from Promega. Luminescence is read on the Envision and IC50 are determined using the variable slope 4-parameters equation.
Oligos are annealed by heating at 95° C. for 5 min in the following buffer (10 mM Tris-HCl PH7.5, 50 mM NaCl, 1 mM EDTA) and cooled to rt. […]

| IC50 | Structure (SMILES) |
| --- | --- |
| > 100 nM | COc1cnc(C(F)F)cc1-c1cc(C#CCN2C(=O)CCC2=O)ncc1C(=O)Nc1nnc(C#CC2CC2)s1 [Compound 561] |
| 1.1 nM | C#C[C@H]1C[C@@H]1c1nnc(NC(=O)c2cnc(-n3ccc(Cl)cc3=O)cc2-c2cc(C(F)F)ncc2OC)s1 [Compound 624] |
| 0.36 nM | COc1cnc(C(F)F)cc1-c1cc(N2C[C@H](C)OCC2=O)ncc1C(=O)Nc1nnc(C#CC2CC2)s1 [Compound 486] |
| 0.5 nM | COc1cnc(C(F)F)cc1-c1cc(C#CC(C)(C)N2CCCCC2)ncc1C(=O)Nc1nnc(C#CC2CC2)s1 [Compound 553] |
| < 0.25 nM | CC#C[C@H]1CC1c1nnc(NC(=O)c2cnc(-n3ccc(C)cc3=O)cc2-c2cc(C(F)F)ncc2OC)s1 (mixture of isomers) [Compound 637] |
| 0.99 nM | COc1cnc(C(F)F)cc1-c1cc(-n2ccc(C)cc2=O)ncc1C(=O)Nc1nnc([C@H]2C[C@@H]2C2CCOCC2)s1 (racemic) [Compound 581] |
| 0.47 nM | C#C[C@@]1(F)CC1c1nnc(NC(=O)c2cnc(-n3ccc(C)cc3=O)cc2-c2cc(C(F)F)ncc2OC)s1 (mixture of isomers) [Compound 639] |
| 1.1 nM | COc1cnc(C(F)F)cc1-c1cc(-n2ccc(C)cc2=O)ncc1C(=O)Nc1nnc([C@H]2C[C@@H]2C)s1 [Compound 545] |
| 5.7 nM | COc1ccc(-c2cc(-c3cc(C(F)F)ncc3OC)c(C(=O)Nc3nnc(C#CC4CC4)s3)cn2)c(OC)n1 [Compound 538] |
| 1.8 nM | COc1cnc(C(F)F)cc1-c1cc(C#CC2CCCN(C)C2)ncc1C(=O)Nc1nnc(C#CC2CC2)s1 (racemic) [Compound 556] |
| 3.1 nM | COc1cnc(C(F)F)cc1-c1cc(C#CCN2CCOCC2)ncc1C(=O)Nc1nnc([C@H]2C[C@@H]2C(F)(F)F)s1 [Compound 609] |
| < 0.25 nM | COC(=O)N1CCN(c2cc(-c3cc(C(F)F)ncc3OC)c(C(=O)Nc3nnc(C#CC4CC4)s3)cn2)C(=O)C12CC2 [Compound 505] |
| 0.47 nM | C=C[C@H]1C[C@@H]1c1nnc(NC(=O)c2cnc(-n3ccc(C)cc3=O)cc2-c2cc(C(F)F)ncc2OC)s1 (racemic) [Compound 585] |
| 29 nM | COc1cnc(C(F)F)cc1-c1cc(-n2ccc(C)cc2=O)ncc1C(=O)Nc1nnc(C(C)(C)OC)s1 [Compound 576] |
| 0.95 nM | COc1cnc(C(F)F)cc1-c1cc(-n2ccc(C)cc2=O)ncc1C(=O)Nc1nnc(C2C[C@@H]2C2CCCO2)s1 (mixture of isomers) [Compound 633] |
| 45 nM | COc1cnc(C(F)F)cc1-c1cc(-n2ccc(C)cc2=O)ncc1C(=O)Nc1nnc(CC(C)(C)OC)s1 [Compound 568] |
| 0.33 nM | COc1cnc(C(F)F)cc1-c1cc(-n2ccc(C(=O)O)cc2=O)ncc1C(=O)Nc1nnc(C#CC2CC2)s1 [Compound 495] |
| < 0.25 nM | COc1cnc(C(F)F)cc1-c1cc(-n2ccc(N)cc2=O)ncc1C(=O)Nc1nnc(C#CC2CC2)s1 [Compound 488] |
| < 0.25 nM | C#C[C@H]1C[C@@H]1c1nnc(NC(=O)c2cnc(-n3ccc(OC4COC4)cc3=O)cc2-c2cc(C(F)F)ncc2OC)s1 [Compound 617] |
| < 0.25 nM | COc1cnc(C(F)F)cc1-c1cc(N2CCC3CCC3C2=O)ncc1C(=O)Nc1nnc(C#CC2CC2)s1 (racemic) [Compound 443] |
| 0.44 nM | COc1cnc(C(F)F)cc1-c1cc(-n2ccc(N(C)C)cc2=O)ncc1C(=O)Nc1nnc(C#CC2CC2)s1 [Compound 537] |
| 30 nM | COc1cnc(C(F)F)cc1-c1cc(-n2ccc(C)cc2=O)ncc1C(=O)Nc1nnc(C(C)OC)s1 (racemic) [Compound 604] |
| 2.7 nM | COc1cnc(C(F)F)cc1-c1cc(N2CCN(CC(F)(F)F)C3(CC3)C2=O)ncc1C(=O)Nc1nnc(C#CC2CC2)s1 [Compound 515] |

Further lines, the compound ahead of its results:

| Structure (SMILES) | IC50 |
| --- | --- |
| CNC(=O)Cn1cc(-c2cc(C(F)(F)F)ccc2OC)c(C(=O)Nc2nnc(C3C[C@H]3c3ccc(C#N)cc3)s2)cc1=O (some centres unmarked) [Compound 92] | 0.25 nM |
| CC#C[C@H]1CC1c1nnc(NC(=O)c2cnc(-n3cccc(F)c3=O)cc2-c2cc(C(F)F)ncc2OC)s1 (mixture of isomers) [Compound 638] | < 0.25 nM |
| COc1cnc(C(F)(F)F)cc1-c1cnccc1C(=O)Nc1nnc(C2C[C@H]2c2ccc(C#N)cc2)s1 (some centres unmarked) [Compound 90] | 0.8 nM |
| COc1cnc(C(F)F)cc1-c1cc(-c2ccc(=O)n(C)c2)ncc1C(=O)Nc1nnc(C#CC2CC2)s1 [Compound 524] | 2.3 nM |
| COc1cnc(C(F)F)cc1-c1cc(-n2ccc(C)cc2=O)ncc1C(=O)Nc1nnc([C@H]2C[C@@H]2c2cnn(C)c2)s1 (racemic) [Compound 584] | 0.51 nM |
| COc1cnc(Cl)cc1-c1cnccc1C(=O)Nc1nnc(C2C[C@H]2c2ccc(OC(F)F)cc2)s1 (some centres unmarked) [Compound 62] | 0.36 nM |
| C=C1CC(c2nnc(NC(=O)c3cnc(-n4ccc(C)cc4=O)cc3-c3cc(C(F)F)ncc3OC)s2)C1 [Compound 597] | 3.6 nM |
| C#C[C@H]1CC1c1nnc(NC(=O)c2cnc(-n3ccc(C)cc3=O)cc2-c2cc(Cl)ncc2OC)s1 (single isomer, unassigned) [Compound 590] | < 0.25 nM |
| COc1cnc(C(F)F)cc1-c1cc(-c2ccc[nH]c2=O)ncc1C(=O)Nc1nnc(C#CC2CC2)s1 [Compound 484] | 0.32 nM |
| COc1cnc(C(F)F)cc1-c1cc(-n2ccc(OC3CCN(C)C3)cc2=O)ncc1C(=O)Nc1ncc(C#CC2CC2)s1 (racemic) [Compound 615] | 1.1 nM |
| C#C[C@H]1CC1c1nnc(NC(=O)c2cnc(CC#N)cc2-c2cc(C(F)F)ncc2OC)s1 (some centres unmarked) [Compound 190] | 5.8 nM |
| COc1cnc(C(F)F)cc1-c1cc(-n2ccc(C)cc2=O)ncc1C(=O)Nc1nnc(C2CC(C)(C)C2)s1 [Compound 567] | 4.3 nM |
| COc1cnc(C(F)F)cc1-c1cc(-n2cc(C)c(C)cc2=O)ncc1C(=O)Nc1nnc(C#CC2CC2)s1 [Compound 476] | < 0.25 nM |
| COc1cnc(C(F)F)cc1-c1cc(C#CCN(C)C)ncc1C(=O)Nc1nnc(C#CC2CC2)s1 [Compound 628] | < 0.25 nM |
| COc1cnc(C(F)F)cc1-c1cc(C#CC2(N)CC2)ncc1C(=O)Nc1nnc(C#CC2CC2)s1 [Compound 554] | < 0.25 nM |
| COc1cnc(C(F)F)cc1-c1cc(C#CCn2ccnc2)ncc1C(=O)Nc1nnc(C#CC2CC2)s1 [Compound 601] | 2.7 nM |
| COc1cnc(C(F)F)cc1-c1cc(C#CC(C)(C)N2CCN(C)CC2)ncc1C(=O)Nc1nnc(C#CC2CC2)s1 [Compound 549] | 1.5 nM |
| COc1cnc(C(F)F)cc1-c1cc(-n2ccc(C)cc2=O)ncc1C(=O)Nc1nnc(COC(C)(C)C)s1 [Compound 578] | 25 nM |
| COc1cnc(C(F)F)cc1-c1cc(-n2ccc(OC3COC3)cc2=O)ncc1C(=O)Nc1nnc(C#CC2CC2)s1 [Compound 610] | 0.27 nM |
| C#C[C@H]1C[C@@H]1c1nnc(NC(=O)c2cnc(-n3ccc(N4CC5(COC5)C4)cc3=O)cc2-c2cc(C(F)F)ncc2OC)s1 [Compound 627] | 0.3 nM |
| COc1cnc(C(F)F)cc1-c1cc(N2CCN(C3CC3)C3(CC3)C2=O)ncc1C(=O)Nc1nnc(C#CC2CC2)s1 [Compound 510] | 0.92 nM |
| COc1cnc(C(F)F)cc1-c1cc(C#CCN2CCCC2=O)ncc1C(=O)Nc1nnc([C@H]2C[C@@H]2c2cncs2)s1 (racemic) [Compound 643] | 0.3 nM |
| C#C[C@H]1C[C@@H](c2nnc(NC(=O)c3cnc(-n4ccc(C)cc4=O)cc3-c3cc(C(F)F)ncc3OC)s2)C1 [Compound 594] | 3 nM |
| COc1cnc(C(F)F)cc1-c1cc(C#CCn2cccn2)ncc1C(=O)Nc1nnc(C#CC2CC2)s1 [Compound 598] | 15 nM |
